The results in this text go back to patent US10765672B2, “Pharmaceutical formulations of a HIF hydroxylase inhibitor” (FibroGen, Inc., priority 2013, dated 2020).

The nature of this data set: Solid state sunlight exposure of Compound A powder, reverse phase HPLC. In kind it is physicochemical. As to conditions: for purity value as measured by reverse phase HPLC: Compound A dry powder. Here is the method: Approximately 500 mg of Compound A dry powder was placed in a 1-gallon polyethylene bag and exposed to sunlight for two months consecutively during daylight hours. The powder was in a very thin layer and the bag was shaken often to ensure that all the powder and not just the top layer was exposed to sunlight. A control sample of Compound A powder was stored in an amber vial in the dark for the same amount of time for comparison purposes. […] The light-exposed sample and the control sample were analyzed by HPLC to evaluate differences in their composition. The HPLC method used a reverse phase Zorbax Eclipse XDB-C8, 3.5 μm, 4.6×150 mm column. The mobile phase was comprised of water and acetonitrile mixtures acidified with trifluoroacetic acid. Gradient elution with increasing acetonitrile provided chromatograms of the control sample of Compound A (FIG. 1, before light exposure) and the light-exposed sample of Compound A (FIG. 1, after light exposure) with UV detection at 230 nm.
After exposure to sunlight, a new peak appeared in the chromatogram evidencing a new molecule.

`Cc1nc(C(=O)NCC(=O)O)c(O)c2ccc(Oc3ccccc3)cc12` [Compound A, [(4-hydroxy-1-methyl-7-phenoxy-isoquinoline-3-carbonyl)-amino]-acetic acid]: the “purity value as measured by reverse phase HPLC” value was 98.4% (after exposure to sunlight for two months) and 99.1% (before exposure to sunlight). The “visual inspection (colour)” value is recorded as “yellow” (control sample stored in amber vial in the dark, two months) and “off-white” (light-exposed sample, two months sunlight).
